The test system of data set [1] is Plasmodium falciparum. In words: Antiplasmodial activity against chloroquine-sensitive Plasmodium falciparum assessed as vacuolar accumulation ratio. The data set is classed as functional.
A short description of data set [2]: Inhibition of beta-hematin polymerization after 24 hr by spectrophotometric analysis. The data set is classed as physicochemical.
Data set [3] relates to Plasmodium falciparum. In words: Antiplasmodial activity against chloroquine-sensitive Plasmodium falciparum after 30 to 34 hr by schizont maturation assay. The data set is classed as functional, organism-based.

Consider `Clc1ncccc1Oc1cc2c(c3ncccc13)Oc1ncccc1O2`, for which the Ratio in the data set with Plasmodium falciparum [1] is 1.2. In addition, the IC50 – broadly, the concentration at which inhibition is half-maximal – in data set [2] turned out to be 2110 µM; in the data set with Plasmodium falciparum [3], 3.7 µM.

In data set [2], `CCN(CC)CCCC(C)Nc1ccnc2cc(Cl)ccc12` (stereo not given) [CHLOROQUINE] returned an IC50 of 1890 µM.

On to `Brc1cc2c(c3ncccc13)Oc1ncccc1O2`, for which, in the data set on Plasmodium falciparum [1], the Ratio is recorded as 1.03. The 50% inhibitory concentration (IC50) in data set [2] came out at 2170 µM; with Plasmodium falciparum [3] it was 6.4 µM.

Regarding `Brc1cc2c(c3ncccc13)Oc1cc(Br)c3cccnc3c1O2`, in the data set on Plasmodium falciparum [1], the Ratio worked out at 1.01. The results for the IC50 (in data set [2]; in the data set on Plasmodium falciparum [3]) were 2780 µM and 7.4 µM, respectively.

The values are drawn from ChEMBL document CHEMBL3046805, “Synthesis and antimalarial evaluation of novel pyridine quinoline hybrids” (Med Chem Res, 2008).
